Calls of active or inactive are those of the source. No cut-off for these calls is given here.
Assays:
SR = experiment: Antiproliferative activity against human SR cells assessed as growth inhibition; format: functional
[1] = molecular target: Dual specificity tyrosine-phosphorylation-regulated kinase 1A (Homo sapiens) (UniProt Q13627); experiment: Inhibition of human DYRK1A at 50 nM in presence of ATP by radiometric Hotspot kinase assay relative to control
[2] = Apparent permeability across basolateral to apical side in human Caco-2 cells at 10 uM; format: ADME, cell-based; details: caco-2, 10 µM
[3] = Metabolic stability in human liver microsomes assessed as half-life at 0.1 uM measured after 60 mins; format: ADME, Microsome; details: 1 h
OVCAR-4 = experiment: Antiproliferative activity against human OVCAR-4 cells assessed as growth inhibition; format: functional, cell-based
[4] = molecular target: Dual specificity protein kinase CLK1 (Homo sapiens) (UniProt P49759); experiment: Inhibition of human CLK1 at 50 nM in presence of ATP by radiometric Hotspot kinase assay relative to control
Homo sapiens = organism: Homo sapiens; experiment: Induction of thermal stabilization of His-tagged DNAJB1-PKAcalpha (unknown origin) incubated for 15 min by differential scanning fluorometric analysis
[5] = molecular target: Dual specificity protein kinase CLK4 (Homo sapiens) (UniProt Q9HAZ1); experiment: Inhibition of human CLK4 at 50 nM in presence of ATP by radiometric Hotspot kinase assay relative to control
LOX IMVI = experiment: Antiproliferative activity against human LOX IMVI cells assessed as growth inhibition; format: functional
[6] = molecular target: Receptor-type tyrosine-protein kinase FLT3 (Homo sapiens) (UniProt P36888); experiment: Inhibition of human FLT3 at 50 nM in presence of ATP by radiometric Hotspot kinase assay relative to control
[7] = Inhibition of DNAJB1-PKAcalpha (unknown origin) overexpressed in mouse NIH/3T3 cells assessed as inhibition of CREB phosphorylation at Ser133 residue preincubated for 30 mins followed by forskolin addition and measured after 30 mins by fluorescence based multilabel reader analysis; format: cell-based; details: NIH3T3
[8] = Aqueous solubility of compound in PBS at pH 7.4 by shake-flask method; format: physicochemical
hERG (KCNH2) = hERG (KCNH2) (Homo sapiens, UniProt Q12809); experiment: Inhibition of human ERG expressed in CHO cells at 10 uM by electrophysiological analysis relative to control; format: toxicity, cell-based; details: CHO cells that express human ERG
NCI/ADR-RES = experiment: Antiproliferative activity against human NCI/ADR-RES cells assessed as growth inhibition; format: functional, cell-based
[9] = molecular target: cAMP-dependent protein kinase catalytic subunit beta (Homo sapiens) (UniProt P22694); experiment: Inhibition of human PKAbeta at 50 nM in presence of ATP by radiometric Hotspot kinase assay
MOLT-4 = experiment: Antiproliferative activity against human MOLT-4 cells assessed as growth inhibition; format: functional
[10] = molecular target: T1, cGMP-dependent protein kinase 1 (Homo sapiens) (UniProt Q13976); details: dose 50.0 nM
T1 sequence (whole entry): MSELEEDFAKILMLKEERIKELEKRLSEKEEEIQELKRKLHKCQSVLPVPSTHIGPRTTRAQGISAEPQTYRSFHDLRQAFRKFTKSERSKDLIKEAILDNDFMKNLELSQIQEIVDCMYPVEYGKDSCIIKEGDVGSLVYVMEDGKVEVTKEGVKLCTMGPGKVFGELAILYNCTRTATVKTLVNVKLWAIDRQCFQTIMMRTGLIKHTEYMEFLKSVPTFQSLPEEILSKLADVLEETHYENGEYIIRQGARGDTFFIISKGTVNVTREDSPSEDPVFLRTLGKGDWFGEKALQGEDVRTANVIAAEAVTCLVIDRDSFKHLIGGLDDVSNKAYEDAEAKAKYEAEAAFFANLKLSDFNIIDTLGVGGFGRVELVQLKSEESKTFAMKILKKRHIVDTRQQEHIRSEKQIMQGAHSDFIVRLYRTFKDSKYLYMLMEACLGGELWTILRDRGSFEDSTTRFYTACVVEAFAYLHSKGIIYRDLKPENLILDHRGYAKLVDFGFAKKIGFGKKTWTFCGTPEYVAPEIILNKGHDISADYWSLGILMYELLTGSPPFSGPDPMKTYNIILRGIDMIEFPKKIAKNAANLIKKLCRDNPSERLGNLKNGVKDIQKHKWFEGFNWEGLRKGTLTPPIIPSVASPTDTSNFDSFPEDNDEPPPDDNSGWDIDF
Description: Inhibition of human PKG1alpha at 50 nM in presence of ATP by radiometric Hotspot kinase assay

[11] = molecular target: RAC-gamma serine/threonine-protein kinase (Homo sapiens) (UniProt Q9Y243); experiment: Inhibition of human Akt3 at 50 nM in presence of ATP by radiometric Hotspot kinase assay
[12] = molecular target: Dual specificity tyrosine-phosphorylation-regulated kinase 1B (Homo sapiens) (UniProt Q9Y463); experiment: Inhibition of human DYRK1B at 50 nM in presence of ATP by radiometric Hotspot kinase assay relative to control
Albumin = Albumin (Homo sapiens, UniProt P02768); experiment: Binding affinity to human serum albumin assessed as protein binding at 10 uM by equilibrium dialysis technique relative to control; format: ADME; details: isolated protein
[13] = molecular target: RAC-alpha serine/threonine-protein kinase (Homo sapiens) (UniProt P31749); experiment: Inhibition of human Akt1 at 50 nM in presence of ATP by radiometric Hotspot kinase assay
[14] = molecular target: Dual specificity protein kinase CLK2 (Homo sapiens) (UniProt P49760); experiment: Inhibition of human CLK2 at 50 nM in presence of ATP by radiometric Hotspot kinase assay relative to control
[15] = Drug metabolism in human liver microsomes at 0.1 uM measured after 60 mins; format: ADME, Microsome; details: 1 h
[16] = molecular target: NT-3 growth factor receptor (Homo sapiens) (UniProt Q16288); experiment: Inhibition of human TRKC at 50 nM in presence of ATP by radiometric Hotspot kinase assay relative to control
[17] = Apparent permeability across apical to basolateral side in human Caco-2 cells at 10 uM; format: ADME, cell-based; details: caco-2, 10 µM
[18] = molecular target: RAC-beta serine/threonine-protein kinase (Homo sapiens) (UniProt P31751); experiment: Inhibition of human Akt2 at 50 nM in presence of ATP by radiometric Hotspot kinase assay
[19] = Metabolic stability in human liver microsomes assessed as intrinsic clearance at 0.1 uM measured after 60 mins; format: ADME, Microsome; details: 1 h
MDA-MB-468 = experiment: Antiproliferative activity against human MDA-MB-468 cells assessed as growth inhibition; format: functional, cell-based
[20] = tested on: Panel NCI-60 (60 carcinoma cell lines); experiment: Antiproliferative activity against human Panel NCI-60 (60 carcinoma cell lines) assessed as growth inhibition; format: functional
[21] = Inhibition of DNAJB1-PKAcalpha (unknown origin) using biotinylated-peptide substrate CREB incubated for 45 mins in presence of ATP and cAMP by ELISA; set-up: species or system Homo sapiens
[22] = molecular target: Tyrosine-protein kinase JAK3 (Homo sapiens) (UniProt P52333); experiment: Inhibition of human JAK3 at 50 nM in presence of ATP by radiometric Hotspot kinase assay relative to control
[23] = molecular target: T2, Dual specificity tyrosine-phosphorylation-regulated kinase 3 (Homo sapiens) (UniProt O43781); experiment: Inhibition of human DYRK3 at 50 nM in presence of ATP by radiometric Hotspot kinase assay relative to control
T2 sequence (whole entry): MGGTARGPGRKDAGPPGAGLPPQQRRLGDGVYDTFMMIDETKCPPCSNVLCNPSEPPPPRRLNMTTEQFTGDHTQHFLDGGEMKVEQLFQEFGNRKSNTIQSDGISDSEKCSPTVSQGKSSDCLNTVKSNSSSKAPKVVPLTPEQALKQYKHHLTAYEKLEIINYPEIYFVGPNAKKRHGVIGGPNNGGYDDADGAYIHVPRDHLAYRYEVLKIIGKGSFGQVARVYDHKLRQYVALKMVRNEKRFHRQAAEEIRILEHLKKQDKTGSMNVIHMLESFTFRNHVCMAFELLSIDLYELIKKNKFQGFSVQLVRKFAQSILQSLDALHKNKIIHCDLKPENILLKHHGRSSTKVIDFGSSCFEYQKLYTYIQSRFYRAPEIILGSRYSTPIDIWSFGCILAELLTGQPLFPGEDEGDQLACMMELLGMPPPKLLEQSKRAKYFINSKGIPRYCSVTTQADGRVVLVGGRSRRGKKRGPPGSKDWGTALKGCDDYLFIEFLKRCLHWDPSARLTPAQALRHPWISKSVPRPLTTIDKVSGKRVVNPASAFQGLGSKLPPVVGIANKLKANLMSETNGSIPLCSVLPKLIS

[24] = molecular target: cAMP-dependent protein kinase catalytic subunit alpha (Homo sapiens) (UniProt P17612); details: dose 50.0 nM
Description: Inhibition of human PKAalpha at 50 nM in presence of ATP by radiometric Hotspot kinase assay relative to control

[25] = molecular target: T3, Dual specificity tyrosine-phosphorylation-regulated kinase 2 (Homo sapiens) (UniProt Q92630); experiment: Inhibition of human DYRK2 at 50 nM in presence of ATP by radiometric Hotspot kinase assay relative to control
T3 sequence (whole entry): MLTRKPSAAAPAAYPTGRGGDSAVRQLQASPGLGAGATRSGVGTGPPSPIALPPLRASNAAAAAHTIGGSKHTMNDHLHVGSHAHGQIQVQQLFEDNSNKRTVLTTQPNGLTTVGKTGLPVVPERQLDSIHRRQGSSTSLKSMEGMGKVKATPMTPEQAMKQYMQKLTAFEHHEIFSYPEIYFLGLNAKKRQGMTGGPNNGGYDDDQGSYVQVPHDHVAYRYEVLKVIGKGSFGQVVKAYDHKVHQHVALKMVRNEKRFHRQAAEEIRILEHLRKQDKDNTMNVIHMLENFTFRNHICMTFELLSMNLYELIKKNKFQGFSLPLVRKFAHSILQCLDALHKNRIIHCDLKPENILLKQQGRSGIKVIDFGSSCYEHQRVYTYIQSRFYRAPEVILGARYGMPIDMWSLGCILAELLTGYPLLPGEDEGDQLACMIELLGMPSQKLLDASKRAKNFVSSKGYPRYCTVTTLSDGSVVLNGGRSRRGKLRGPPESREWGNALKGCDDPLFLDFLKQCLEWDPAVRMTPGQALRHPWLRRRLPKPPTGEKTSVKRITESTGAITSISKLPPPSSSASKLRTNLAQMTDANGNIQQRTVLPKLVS

[26] = molecular target: Tyrosine-protein kinase JAK2 (Homo sapiens) (UniProt O60674); experiment: Inhibition of human JAK2 at 50 nM in presence of ATP by radiometric Hotspot kinase assay relative to control
[27] = Efflux ratio of apparent permeability across basolateral to apical side over apical to basolateral side in human Caco-2 cells at 10 uM; format: ADME, cell-based
[28] = molecular target: Tyrosine-protein kinase JAK1 (Homo sapiens) (UniProt P23458); experiment: Inhibition of human JAK1 at 50 nM in presence of ATP by radiometric Hotspot kinase assay relative to control

Chain of RAC-alpha serine/threonine-protein kinase (Homo sapiens) (P31749 whole entry): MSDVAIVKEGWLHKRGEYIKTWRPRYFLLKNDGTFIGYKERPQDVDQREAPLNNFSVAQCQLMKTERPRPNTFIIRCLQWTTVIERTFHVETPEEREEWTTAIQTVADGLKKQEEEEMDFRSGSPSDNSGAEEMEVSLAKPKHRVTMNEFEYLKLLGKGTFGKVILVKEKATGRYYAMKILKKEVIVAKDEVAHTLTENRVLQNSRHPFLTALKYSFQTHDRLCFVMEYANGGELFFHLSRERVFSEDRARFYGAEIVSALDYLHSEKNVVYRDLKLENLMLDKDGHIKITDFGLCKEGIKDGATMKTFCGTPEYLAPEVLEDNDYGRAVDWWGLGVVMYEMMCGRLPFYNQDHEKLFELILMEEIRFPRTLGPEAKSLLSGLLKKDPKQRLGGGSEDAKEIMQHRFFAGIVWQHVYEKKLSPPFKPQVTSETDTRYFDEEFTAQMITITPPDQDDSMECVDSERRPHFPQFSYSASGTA
Chain of NT-3 growth factor receptor (Homo sapiens) (Q16288 32-839 limits assumed): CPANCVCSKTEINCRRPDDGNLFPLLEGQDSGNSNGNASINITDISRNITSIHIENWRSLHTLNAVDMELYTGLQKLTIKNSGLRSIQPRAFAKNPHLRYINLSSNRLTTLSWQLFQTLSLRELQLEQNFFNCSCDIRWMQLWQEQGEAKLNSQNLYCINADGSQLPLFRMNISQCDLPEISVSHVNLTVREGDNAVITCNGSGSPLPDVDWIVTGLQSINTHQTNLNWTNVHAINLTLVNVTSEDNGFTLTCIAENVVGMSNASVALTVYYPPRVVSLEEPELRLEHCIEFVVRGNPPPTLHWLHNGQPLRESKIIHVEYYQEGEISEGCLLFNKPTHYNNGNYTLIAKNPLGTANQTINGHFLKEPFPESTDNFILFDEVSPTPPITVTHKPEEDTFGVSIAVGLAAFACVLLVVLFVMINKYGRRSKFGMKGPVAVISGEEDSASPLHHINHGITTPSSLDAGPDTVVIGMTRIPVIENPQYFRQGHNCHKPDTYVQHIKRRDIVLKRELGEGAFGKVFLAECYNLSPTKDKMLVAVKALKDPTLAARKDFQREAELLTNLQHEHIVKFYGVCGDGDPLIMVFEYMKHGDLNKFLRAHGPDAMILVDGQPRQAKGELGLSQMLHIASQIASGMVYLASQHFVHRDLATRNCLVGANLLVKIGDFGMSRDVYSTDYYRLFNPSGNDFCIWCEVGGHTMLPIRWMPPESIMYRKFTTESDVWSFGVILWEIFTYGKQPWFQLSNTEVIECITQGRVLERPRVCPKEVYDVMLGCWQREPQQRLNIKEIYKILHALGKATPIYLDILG
Chain of hERG (KCNH2) (Q12809 whole entry): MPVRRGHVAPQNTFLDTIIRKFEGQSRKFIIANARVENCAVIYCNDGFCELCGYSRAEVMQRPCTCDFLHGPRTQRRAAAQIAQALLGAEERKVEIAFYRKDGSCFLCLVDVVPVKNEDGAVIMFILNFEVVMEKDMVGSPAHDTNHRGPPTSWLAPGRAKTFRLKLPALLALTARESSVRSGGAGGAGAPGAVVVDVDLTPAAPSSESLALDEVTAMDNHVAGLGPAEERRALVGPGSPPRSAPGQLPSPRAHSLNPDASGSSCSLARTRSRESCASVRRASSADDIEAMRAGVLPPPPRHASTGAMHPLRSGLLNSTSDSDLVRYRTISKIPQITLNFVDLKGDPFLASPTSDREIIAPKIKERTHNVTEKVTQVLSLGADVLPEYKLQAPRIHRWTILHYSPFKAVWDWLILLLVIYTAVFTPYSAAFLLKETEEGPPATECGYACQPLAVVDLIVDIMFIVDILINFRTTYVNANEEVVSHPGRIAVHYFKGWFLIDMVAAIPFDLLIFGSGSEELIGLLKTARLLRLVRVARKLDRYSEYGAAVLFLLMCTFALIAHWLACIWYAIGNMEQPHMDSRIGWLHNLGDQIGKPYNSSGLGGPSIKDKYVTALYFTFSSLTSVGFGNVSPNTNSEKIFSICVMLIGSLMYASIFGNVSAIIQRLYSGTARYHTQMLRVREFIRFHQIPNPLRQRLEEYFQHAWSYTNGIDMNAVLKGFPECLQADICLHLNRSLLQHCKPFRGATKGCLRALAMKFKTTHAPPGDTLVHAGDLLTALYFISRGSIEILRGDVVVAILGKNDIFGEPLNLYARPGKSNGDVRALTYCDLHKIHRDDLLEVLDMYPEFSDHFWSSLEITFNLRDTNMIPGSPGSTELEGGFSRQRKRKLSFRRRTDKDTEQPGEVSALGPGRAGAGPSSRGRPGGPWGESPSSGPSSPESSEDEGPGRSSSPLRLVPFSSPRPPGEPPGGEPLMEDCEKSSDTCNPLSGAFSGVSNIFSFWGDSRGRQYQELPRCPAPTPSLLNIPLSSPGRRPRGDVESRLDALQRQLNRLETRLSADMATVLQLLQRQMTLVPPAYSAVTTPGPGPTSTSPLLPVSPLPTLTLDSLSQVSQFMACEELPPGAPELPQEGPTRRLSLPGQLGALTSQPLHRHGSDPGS
Chain of RAC-gamma serine/threonine-protein kinase (Homo sapiens) (Q9Y243 whole entry): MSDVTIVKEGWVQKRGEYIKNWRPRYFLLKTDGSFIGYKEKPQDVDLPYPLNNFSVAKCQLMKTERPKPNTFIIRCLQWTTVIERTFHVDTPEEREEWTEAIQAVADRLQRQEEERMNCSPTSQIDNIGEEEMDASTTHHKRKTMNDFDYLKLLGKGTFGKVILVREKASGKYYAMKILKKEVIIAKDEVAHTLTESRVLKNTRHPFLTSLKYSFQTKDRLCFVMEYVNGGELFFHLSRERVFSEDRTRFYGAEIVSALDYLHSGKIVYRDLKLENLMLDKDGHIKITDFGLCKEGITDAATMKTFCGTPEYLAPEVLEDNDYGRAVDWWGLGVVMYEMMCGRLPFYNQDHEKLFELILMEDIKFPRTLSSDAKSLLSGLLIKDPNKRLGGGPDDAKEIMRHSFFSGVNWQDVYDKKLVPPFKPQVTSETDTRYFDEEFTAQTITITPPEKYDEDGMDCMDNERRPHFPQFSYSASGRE
Chain of Albumin (P02768 whole entry): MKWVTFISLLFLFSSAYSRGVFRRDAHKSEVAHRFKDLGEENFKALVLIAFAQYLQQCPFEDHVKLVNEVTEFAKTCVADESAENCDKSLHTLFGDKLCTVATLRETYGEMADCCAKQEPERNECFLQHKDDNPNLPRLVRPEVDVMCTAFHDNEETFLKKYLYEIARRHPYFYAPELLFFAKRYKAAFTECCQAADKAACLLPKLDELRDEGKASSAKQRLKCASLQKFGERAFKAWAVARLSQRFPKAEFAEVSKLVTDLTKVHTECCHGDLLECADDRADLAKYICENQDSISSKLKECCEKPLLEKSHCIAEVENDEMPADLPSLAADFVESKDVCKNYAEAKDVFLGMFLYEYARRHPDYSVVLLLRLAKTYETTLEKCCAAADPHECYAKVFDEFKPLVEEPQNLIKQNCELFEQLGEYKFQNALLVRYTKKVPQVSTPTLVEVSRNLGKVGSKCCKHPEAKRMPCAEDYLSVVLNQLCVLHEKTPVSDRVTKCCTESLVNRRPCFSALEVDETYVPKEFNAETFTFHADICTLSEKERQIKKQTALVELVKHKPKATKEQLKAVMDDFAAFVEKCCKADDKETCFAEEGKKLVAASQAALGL
Chain of RAC-beta serine/threonine-protein kinase (Homo sapiens) (P31751 whole entry): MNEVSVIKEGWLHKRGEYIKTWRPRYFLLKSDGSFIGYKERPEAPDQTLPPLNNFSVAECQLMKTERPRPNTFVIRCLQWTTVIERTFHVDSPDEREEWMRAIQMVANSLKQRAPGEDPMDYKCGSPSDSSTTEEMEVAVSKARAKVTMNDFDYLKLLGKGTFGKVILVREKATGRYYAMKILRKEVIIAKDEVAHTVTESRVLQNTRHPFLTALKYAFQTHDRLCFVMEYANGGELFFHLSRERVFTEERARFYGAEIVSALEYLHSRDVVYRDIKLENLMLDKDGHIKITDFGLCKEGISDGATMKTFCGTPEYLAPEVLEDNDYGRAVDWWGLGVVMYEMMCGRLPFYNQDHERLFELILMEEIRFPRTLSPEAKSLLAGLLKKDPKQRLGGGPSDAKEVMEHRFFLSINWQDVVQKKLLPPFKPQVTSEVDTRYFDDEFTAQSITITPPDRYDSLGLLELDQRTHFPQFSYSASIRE
Chain of Dual specificity protein kinase CLK1 (Homo sapiens) (P49759 whole entry, looked up): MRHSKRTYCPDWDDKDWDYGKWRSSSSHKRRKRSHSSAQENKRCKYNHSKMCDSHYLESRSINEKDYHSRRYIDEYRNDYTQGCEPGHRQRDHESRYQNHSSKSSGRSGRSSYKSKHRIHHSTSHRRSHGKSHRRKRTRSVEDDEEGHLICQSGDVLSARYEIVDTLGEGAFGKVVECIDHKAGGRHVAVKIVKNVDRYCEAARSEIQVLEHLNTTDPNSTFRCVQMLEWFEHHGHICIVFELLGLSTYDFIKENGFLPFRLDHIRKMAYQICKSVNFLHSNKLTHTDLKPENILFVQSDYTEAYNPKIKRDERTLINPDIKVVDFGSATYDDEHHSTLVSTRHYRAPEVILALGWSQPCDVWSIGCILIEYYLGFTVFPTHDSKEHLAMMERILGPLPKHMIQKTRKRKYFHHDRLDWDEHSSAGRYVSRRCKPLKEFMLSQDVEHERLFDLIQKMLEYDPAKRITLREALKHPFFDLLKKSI
Chain of Dual specificity protein kinase CLK2 (Homo sapiens) (P49760 whole entry, looked up): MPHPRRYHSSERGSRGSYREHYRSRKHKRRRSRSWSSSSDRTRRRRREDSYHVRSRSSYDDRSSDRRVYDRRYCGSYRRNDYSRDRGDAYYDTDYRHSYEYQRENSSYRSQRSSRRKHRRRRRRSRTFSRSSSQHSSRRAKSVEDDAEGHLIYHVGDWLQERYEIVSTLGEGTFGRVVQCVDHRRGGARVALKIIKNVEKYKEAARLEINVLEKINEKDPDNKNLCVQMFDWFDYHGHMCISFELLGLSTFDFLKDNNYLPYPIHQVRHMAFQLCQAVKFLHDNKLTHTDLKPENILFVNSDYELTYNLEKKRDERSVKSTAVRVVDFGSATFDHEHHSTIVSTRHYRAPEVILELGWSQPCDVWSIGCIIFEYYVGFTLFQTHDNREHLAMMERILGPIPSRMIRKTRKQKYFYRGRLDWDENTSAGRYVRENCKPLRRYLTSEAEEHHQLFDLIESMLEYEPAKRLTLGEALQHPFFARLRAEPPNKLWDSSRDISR

SMILES | Activity (SR) | Papp [2] | t1/2 [3] | Activity (OVCAR-4) | GI50 (LOX IMVI) | IC50 [7] | solubility thermodynamic [8] | inhibition at 10 µM (hERG (KCNH2)) | Activity (NCI/ADR-RES) | inhibition [9] | Activity (MOLT-4) | inhibition [11] | PB (Albumin) | inhibition [13] | Drug metabolism [15] | inhibition [16] | Papp [17] | inhibition [18] | CLH [19] | Activity (MDA-MB-468) | further results
Cc1c[nH]c2ncnc(N3C=C(C(=O)N4CCC[C@@H](N)C4)SCC3)c12 | Active | 6.6 10^-6 cm/s | > 1 h | inactive | > 1000 nM | 3400 nM | > 200 µM | 28% | inactive | Active | Active | Active | 84% | Active | metabolite_notdetected | > 50% | 0.1 10^-6 cm/s | Active | < 115 µL/min/mg | Active | inhibition [1]: Active; inhibition [4]: Active; Activity (Homo sapiens): Dose-dependent-effect; inhibition [5]: Active; inhibition [6]: > 50%; inhibition [10]: Active; inhibition [12]: Active; inhibition [14]: Active
Cn1c(Br)nc(Br)c1C1=CN(c2ncnc3[nH]cnc23)CCS1 | Active | – | – | inactive | > 1000 nM | – | – | – | inactive | – | Active | – | – | – | – | – | – | – | – | Active | GI50 [20]: 360 nM
C1=C(c2ccnc3[nH]ccc23)SCCN1c1ccnc2[nH]ccc12 | – | – | – | inactive | > 1000 nM | – | – | – | inactive | – | – | – | – | – | – | – | – | – | – | Active | LC50 (SR): 600 nM; GI50 [20]: 1550 nM; LC50 (MOLT-4): 780 nM; IC50 [21]: 2800 nM
O=C(N[C@@H](c1ccccc1)[C@H]1CCCN1)C1=CN(c2ncnc3[nH]ccc23)CCS1 | Active | 19.7 10^-6 cm/s | > 1 h | inactive | 40 nM | 660 nM | > 200 µM | 33% | inactive | Active | Active | Active | 84% | Active | metabolite_notdetected | > 50% | 0.3 10^-6 cm/s | Active | < 115 µL/min/mg | Active | inhibition [22]: > 50%; inhibition [23]: Active; inhibition [24]: Active; IC50 [21]: 6 nM; inhibition [25]: Active; inhibition [26]: > 50%; efflux ratio at 10 µM [27]: 66; inhibition [28]: > 50%

Source: ChEMBL document CHEMBL6182931, “Chemical Evolution of Aplithianine Class of Serine/Threonine Kinase Inhibitors” (J Med Chem, 2025)
